{
  "source": "paper PMC9650428",
  "about": "“Mutagenesis and functional analysis of SotB: A multidrug transporter of the major facilitator superfamily from Escherichia coli” (Frontiers in Microbiology, 2022)",
  "key": {"[1]": {"target": "T1, SotB (Escherichia coli, UniProt P31122)", "T1 construct": "The full-length sotB and lapC genes from the E. coli MG1655 genome were subcloned into the cloning vector pET28a; 8xHis (C); made in house; host or cells: E. coli C43(DE3)", "test": "SPR affinity assay, wild-type SotB", "type": "binding", "details": "SPR, wild-type SotB immobilised, one-to-one model; read-out: KD (equilibrium dissociation constant), binding affinity with SotB", "method": "(§1) The instrument used in surface plasmon resonance (SPR) affinity assays was OpenSPR (Nicoya, Canada) and the chip used was COOH sensor chip (Nicoya, Canada). SotB and its variants were as ligands. IPTG, L-arabinose, D-xylose, D-glucose, D-fructose, and D-mannose were as small molecules. Using HSB-EP buffer (10 mM HEPES, 150 mM NaCl, 3 mM EDTA, 0.005% Tween-20, pH7.4) as test buffer and setting flow rate 150 μl/min after installed COOH chip according to OpenSPRTM instrument standard operating procedure. After the signal baseline was reached, loading 200 μl 80% isopropyl alcohol and ran for 10 s to drain bubbles. After reaching baseline, the sample ring was rinsed with HSB-EP buffer and emptied with air. After the signal reached the baseline, loading 200 μl EDC (400 mM, Sigma)/NHS (100 mM, Sigma; 1:1) solution with a flow rate 20 μl/min for 4 min. Then, loading 200 μl ligand (SotB/SotB variants) diluted by the activation buffer (sodium acetate, 10 mM, pH3.5) and ran for 4 min (20 μl/min). Then the sample ring was rinsed with HSB-EP buffer and emptied with air. Loading 200 μl 1 M ethanolamine (Sigma) blocking solution (20 μl/min, 4 min), rinsed the sample ring with HSB-EP buffer, and emptied the sample ring with air. Observing baseline for 5 min to ensure stability. The small molecules were diluted with PBS buffer (2 mM of KH2PO4, 10 mM of Na2HPO4, 2.7 mM of KCl, and 137 mM of NaCl at pH 7.4), and the concentration was shown in the experimental results. The flow rate for small molecules was performed at 20 μl/min. The binding time of small molecule and ligand was 240 s, and the dissociation was 240 s. The analysis software used for the experimental results was TraceDrawer, and the analysis method was one-to-one analysis model."}, "[2]": {"target": "T2, SotB H115A (Escherichia coli, UniProt P31122, H115A)", "T2 construct": "The full-length sotB and lapC genes from the E. coli MG1655 genome were subcloned into the cloning vector pET28a; 8xHis (C); made in house; host or cells: E. coli C43(DE3)", "T2 sequence (P31122 1-396 H115A)": "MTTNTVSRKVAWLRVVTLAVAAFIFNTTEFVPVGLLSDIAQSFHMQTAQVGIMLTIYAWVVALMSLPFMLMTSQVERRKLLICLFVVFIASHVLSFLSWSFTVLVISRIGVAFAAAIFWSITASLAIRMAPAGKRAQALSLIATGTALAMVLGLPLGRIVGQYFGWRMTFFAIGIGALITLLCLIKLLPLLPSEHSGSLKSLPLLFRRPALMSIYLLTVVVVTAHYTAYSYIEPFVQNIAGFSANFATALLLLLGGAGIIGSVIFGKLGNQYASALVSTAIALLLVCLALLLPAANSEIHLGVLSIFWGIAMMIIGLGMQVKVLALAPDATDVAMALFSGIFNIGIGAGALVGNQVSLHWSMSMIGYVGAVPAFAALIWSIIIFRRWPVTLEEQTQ", "test": "SPR affinity assay, SotB variant H115A", "type": "binding", "method": "as §1"}, "[3]": {"target": "T3, SotB S339A (Escherichia coli, UniProt P31122, S339A)", "T3 construct": "The full-length sotB and lapC genes from the E. coli MG1655 genome were subcloned into the cloning vector pET28a; 8xHis (C); made in house; host or cells: E. coli C43(DE3)", "T3 sequence (P31122 1-396 S339A)": "T2 sequence (P31122 1-396 H115A) with A115H, S339A", "test": "SPR affinity assay, SotB variant S339A", "details": "read-out: KD, binding affinity with S339A", "method": "as §1, with “The small molecules were diluted with PBS buffer (2 mM of KH2PO4, 10 mM of Na2HPO4, 2.7 mM of KCl, and 137 mM of NaCl at pH 7.4), and the concentration was shown in the experimental results. The flow rate for small molecules was performed at 20 μl/min. The binding time of small molecule and ligand was 240 s, and the dissociation was 240 s. The analysis software used for the experimental results was TraceDrawer, and the analysis method was one-to-one analysis model.” left out"}, "[4]": {"target": "T4, SotB N343A (Escherichia coli, UniProt P31122, N343A)", "T4 construct": "The full-length sotB and lapC genes from the E. coli MG1655 genome were subcloned into the cloning vector pET28a; 8xHis (C); made in house; host or cells: E. coli C43(DE3)", "T4 sequence (P31122 1-396 N343A)": "T2 sequence (P31122 1-396 H115A) with A115H, N343A", "test": "SPR affinity assay, SotB variant N343A", "type": "binding", "method": "as §1"}},
  "note": "Changes are numbered by the printed parent chain.",
  "data": [
    {"smiles": "OC1OC[C@H](O)[C@H](O)[C@H]1O", "note": "(mixture of isomers) [L-arabinose]", "values": [
      {"measurement": "Kd", "setting": "[1]", "result": 4.1, "unit": "mM"},
      {"measurement": "Binding affinity of H115A, fold lower than the wild-type protein", "setting": "[2]; H115A vs wild-type SotB", "result": 3.2, "unit": "fold"},
      {"measurement": "Kd", "setting": "[2]; SotB variant H115A, read-out: KD, binding affinity with H115A", "result": 13.3, "unit": "mM"},
      {"measurement": "Kd", "setting": "[3]", "result": 3.5, "unit": "mM"},
      {"measurement": "Binding affinity of N343A, fold lower than the wild-type protein", "setting": "[4]; N343A vs wild-type SotB", "result": 3.5, "unit": "fold"},
      {"measurement": "Kd", "setting": "[4]; SotB variant N343A, read-out: KD, binding affinity with N343A", "result": 14.5, "unit": "mM"}
    ]}
  ]
}
